Test results from patent US20120237937A1, “METHODS TO DETECT CANCER IN ANIMALS” (UNIVERSITY OF LOUISVILLE RESEARCH FOUNDATION, INC., priority 2009, published 2012).

Legend:
[1] = tested on: lung tumor; assay: Response of lung lesions of patient 25b to Erlotinib; assay type: in vivo, human; settings: Stage I
Source text: The horizontal dotted line represents a ratio of 1. […] See also, Fan et al. (2009) Exp. Molec. Pathol. 87, 83-86.

[2] = Time course analysis of 13C-metabolites in plasma by 1H NMR after [U-13C]-Glc infusion; assay type: in vivo, human; settings: 3 hrs after [U-13C]-glucose infusion, lung cancer patients
Method: The extraction was performed twice for quantitative recovery.
See Fan et al. (2008) Prog. NMR Spectrosc. 52, 69-117; Fan (1996) Prog. NMR Spectrosc 28, 161-219.
In order to determine the optimal time to sample tissue after infusing [U-^13C]-Glc into lung cancer patients, we used ^1H NMR to analyze the profiles of ^13C-labeled products in plasma samples at several time points. Other than the administered tracer itself ([U-^13C]-Glc), the major ^13C-labeled metabolite in plasma was lactate. Plasma samples were collected 0, 3, and 12 hr after [U-^13C]-Glc infusion, as described in the Patient Treatment and Sample Collection section above. Unlabeled glucose and lactate concentrations were quantified by 1-D ^1H NMR using DSS as the calibration standard. Their % ^13C enrichment was determined from the respective ^13C satellite peaks in 1-D ^1H NMR spectra. Panels A-D illustrate the time course changes in glucose and lactate concentrations as well as their % ^13C enrichment. […] The chemical shifts of lactate and Ala reflected the acidic pH of the TCA extract.

[3] = Time course of plasma 13C-glucose and 13C-lactate in SCID mice by NMR; assay type: in vivo, SCID mouse
Method: (§1) A 20% solution of glucose in normal saline was sterile-filtered. 100 μL of this solution, or a 1:10 dilution (2%) were injected into the tail vein of a restrained mouse without anesthesia.
Approximately 50 μL samples of blood were taken intraorbitally at timed intervals, chilled and separated into plasma and whole blood by centrifugation at 4° C. at 3,000 g for 5 minutes. Plasma was flash frozen in liquid N2 for storage prior to workup.
Twenty to thirty μl of plasma was made to 10% trichloroacetic acid (TCA) and centrifuged at 4° C., at ≧22,000 g for 20 minutes to remove denatured proteins. The polar supernatant was lyophilized to remove TCA before preparation for NMR and GC-MS analysis.
(§2) NMR spectra were recorded at 14.1 T on a Varian Inova spectrometer equipped with a 5 mm inverse triple resonance cold probe, at 20° C. 1D NMR spectra were recorded with an acquisition time of 2 s and a recycle time of 5 sec. Concentrations of metabolites and ^13C incorporation were determined by peak integration of the ^1H NMR spectra referenced to the DSS methyl groups, with correction for differential relaxation, as previously described (See, Lane et al. (2008) Biophysical Tools for Biologists. 84: 541-588; Fan et al. (2008) Progress in NMR Spectroscopy 52: 69-117; Lane et al. (2007) Metabolomics 3: 79-86.). ^1H Spectra were typically processed with zero filling to 131 k points, and apodized with an unshifted Gaussian and a 0.5 Hz line broadening exponential.
The two SCID mice were injected via the tail vein with […] [U-^13C]-glucose. Blood was sequentially taken intraorbitally, and analyzed by NMR as described in the NMR Spectroscopy section. To assess the optimal time for metabolizing the ^13C6-glucose in mice, plasma samples were taken at 15-minute intervals and processed for NMR analysis. […] The initial glucose enrichment ranged from 30 to >50% depending on the size of the mouse, which means that the plasma glucose concentration was roughly doubled immediately after the bolus [U-^13C]-glucose injection. The % enrichment for glucose decreased rapidly and asymptotically within one hour, presumably via the normal homeostatic mechanism. […] The initial rate of ^13C lactate production was approximately equal to the initial rate of glucose consumption, but then decayed after about 20 minutes.

[4] = Isotopic enrichment in SCID mouse tissue lactate and glucose by 1D 1H NMR; assay type: in vivo; settings: Lac at C3, Glc at C1α
Method: as §1
Mice were sacrificed at different times post glucose injection, and the following organs were dissected sequentially: lung, heart, liver, kidney, brain, spleen, and thigh muscle. Dissected tissue was flash frozen in liquid N2 within 1 minute of killing the animal.
Frozen tissues were ground in liquid N2 to <10 μm particles in a 6750 Freezer/Mill (Retsch, Inc., Newtown, Pa.) and extracted for soluble and lipidic metabolites as follows. Up to 20 mg of frozen tissue powder in 15 ml polypropylene conical centrifuge tube (Sarstedt, Newton, N.C.) containing 3 mm diameter glass beads was vigorously mixed with 2 ml of cold acetonitrile (mass spectrometry grade, stored at −20° C.) to denature proteins, followed by addition of 1.5 ml nanopure water, and 1 ml HPLC-grade chloroform (Fisher Scientific). The mixture was shaken vigorously until achieving a milky consistency followed by centrifugation at 3,000 g for 20 minutes at 4° C. to separate the polar (top), lipidic (bottom), and tissue debris layers (interface). The polar and lipidic layers were recovered sequentially and the remaining cell debris was extracted again with 0.5 ml chloroform:methanol:butylated hydroxytoluene (BHT) (2:1:1 mM) which was pooled with the lipidic fraction. All three fractions were vacuum-dried in a speedvac device (Vacufuge, Eppendorf, New York, N.Y.) and/or by lyophylization. The dry weight of tissue debris was obtained for normalization of metabolite content. The polar extracts were redissolved in 100% D2O containing 30 nmol perdeuterated DSS (2,2-dimethyl-2-silapentane-5-sulfonate, Cambridge Isotope Laboratories, Andover, Mass.) as internal chemical shift and concentration reference for NMR measurement.
as §2
The same extracts from FIG. 9 were analyzed by NMR to complement the GC-MS analysis. The ^13C enrichment into glucose/glucose-6-phosphate and lactate was determined by 1D ^1H NMR. The enrichments at 15 and 30 minutes post infusion were substantial in all tissues, and peak lactate enrichments differed according to the metabolic activity or glucose uptake rates of the different tissues (Table 7).
Lac measured at C3, G1c measured at C1α by NMR

[5] = GC-MS quantification of total and 13C-enriched metabolites in paired normal and cancerous lung tissues
[6] = GC-MS analysis of 13C-mass isotopomers of lactate in plasma after [U-13C]-glucose infusion; assay type: in vivo, human; settings: in excess of natural abundance
[7] = NMR 13C-isotopomer profiling of TCA extracts of paired non-cancerous and cancerous lung tissues; settings: in vivo
Method: Lung cancer patients were recruited based on the criteria of surgical eligibility and no history of diabetes. Each patient was consented in accordance with the U.S. HIPAA regulations. The following patient protocol was approved by the Internal Review Board at the University of Louisville. Ten grams uniformly ^13C labeled glucose ([U-^13C]-Glc or ^13C6-Glc or ^13C6-Glucose) in sterile saline solution were infused i.v. over a 30 min time period into each patient in the pre-op room approximately 3 or 12 hr prior to resection. Whole blood samples were collected into a vacutainer containing the anticoagulant K3EDTA or K3-EDTA before and after [U-^13C]-Glc infusion as well as after the surgery. Additional blood samples were collected 3 and 12 hr after the [U-^13C]-Glc infusion for the 12 hr treatment cases. […] The blood samples were placed on ice immediately after collection and centrifuged at 4° C. at 3,500×g for 15 min to recover the plasma fraction. All blood samples were aliquoted and flash-frozen in liquid N2 within 30 min of collection. Potassium EDTA was used as an anti-coagulant to minimize metabolic artifacts associated with anti-coagulation; it also served to remove the influence of interfering cations such as paramagnetic Fe^3+ and Cu^2+ for NMR analysis.
All timings from first incision to cutting arteries and veins to the lung were recorded so that the period of ischemia could be determined immediately after tissue resection, excess blood was blotted from the tissue, and small pieces of non-cancerous and tumor tissue were cut by the surgeon and freeze-clamped in liquid N2 within 5 minutes of removal from the chest cavity. The freezing process arrested metabolic changes almost instantaneously. […] Non-cancerous tissue was removed at least 2 cm from the tumor margin and certified to be tumor-free by trained pathologists. Subsequent pathological evaluation also confirmed tumor status and provided the tumor stage. All samples were stored at −80° C. until further processing for analysis.
Frozen tissue samples were pulverized into <10 μm particles in liquid N2 using a Spex freezer mill (Spex CertiPrep, Inc., Metuchen, N.J.) to maximize efficiency for subsequent extraction while maintaining biochemical integrity. An aliquot of the frozen powder was lyophilized before extraction for metabolites.
Water-soluble or polar metabolites were extracted from lyophilized tissue powders (4-48 mg) in ice-cold 10% trichloroacetic acid (TCA) (v/w minimum 40/1) while leaving proteins, nucleic acids, and polysaccharides behind, as described previously (Kim et al. Antioxidants & Redox Signaling 2001, 3:361-373). The extraction was performed twice for quantitative recovery. An aliquot (150 μl) of plasma samples were made to final 10% TCA concentration to precipitate proteins and recover metabolites in the supernatant. TCA was then removed from tissue or plasma extracts by lyophilization. The dry pellet was dissolved in nanopure water and two small aliquots were lyophilized for silylation and GC-MS analysis while the remaining bulk was passed through a Chelex 100 resin column (Bio-Rad Laboratories, Inc., Hercules, Calif.) to neutralize and remove interfering multivalent cations for NMR analysis.
The ^1H reference standard, DSS (2,2-Dimethyl-2-silapentane-5-sulfonate sodium salt) was added (30 or 50 nmoles) to the TCA extracts of tissue or plasma samples, respectively. […]

C#Cc1cccc(Nc2ncnc3cc(OCCOC)c(OCCOC)cc23)c1 [Erlotinib]
response of lesion ([1]; lower lobe (LL) lesion): responded
response of lesion ([1]; upper lobe (UL) lesion): did not

CC(O)C(=O)O (stereo not drawn) [lactate]
% 13C enrichment in plasma [2]: 5-22%
peak % 13C enrichment in plasma ([3]; SCID mice, after [U-13C]-glucose bolus): 8-12%
time of peak 13C enrichment in plasma ([3]; SCID mice, post injection): 15 to 20 min
% 13C isotopic enrichment in tissue ([4]; Heart, 15 min): 25%
% 13C isotopic enrichment in tissue ([4]; Heart, 30 min): 33%
% 13C isotopic enrichment in tissue ([4]; Kidney, 15 min): 19%
% 13C isotopic enrichment in tissue ([4]; Kidney, 30 min): 17%
% 13C isotopic enrichment in tissue ([4]; Liver, 15 min): 11%
% 13C isotopic enrichment in tissue ([4]; Liver, 30 min): 13%
% 13C isotopic enrichment in tissue ([4]; Lung N, 15 min): 20%
% 13C isotopic enrichment in tissue ([4]; Lung N, 30 min): 17%
% 13C isotopic enrichment in tissue ([4]; Thigh muscle, 15 min): 17%
% 13C isotopic enrichment in tissue ([4]; Thigh muscle, 30 min): 11%
metabolite content of lung tissue ([5]; patient #6 (sqC, grade II), cancer tissue): 29.55 μmole/g dry weight
metabolite content of lung tissue ([5]; patient #6 (sqC, grade II), normal tissue): 2.66 μmole/g dry weight
metabolite content of lung tissue ([5]; patient #7 (adenoC, grade II), cancer tissue): 10.62 μmole/g dry weight
metabolite content of lung tissue ([5]; patient #7 (adenoC, grade II), normal tissue): 11.80 μmole/g dry weight
metabolite content of lung tissue ([5]; patient #8 (sqC, grade II-III), cancer tissue): 17.72 μmole/g dry weight
metabolite content of lung tissue ([5]; patient #8 (sqC, grade II-III), normal tissue): 9.44 μmole/g dry weight
metabolite content of lung tissue ([5]; patient #9 (sqC, grade II), cancer tissue): 25.31 μmole/g dry weight
metabolite content of lung tissue ([5]; patient #9 (sqC, grade II), normal tissue): 19.52 μmole/g dry weight
metabolite content of lung tissue ([5]; patient #10 (sqC, grade III), cancer tissue): 29.67 μmole/g dry weight
metabolite content of lung tissue ([5]; patient #10 (sqC, grade III), normal tissue): 8.27 μmole/g dry weight

[13CH3][13CH](O)[13C](=O)O (stereo not drawn) [[U-^13C]-Lactate, uniformly ^13C labeled lactate]
Percentage distribution of 13C-mass isotopomers of lactate in plasma ([6]; patient #6, [U-13C]-glucose 3 h): 1.89%
Percentage distribution of 13C-mass isotopomers of lactate in plasma ([6]; patient #7, [U-13C]-glucose 3 h): 4.84%
Percentage distribution of 13C-mass isotopomers of lactate in plasma ([6]; patient #8, [U-13C]-glucose 3 h): 3.31%
Percentage distribution of 13C-mass isotopomers of lactate in plasma ([6]; patient #9, [U-13C]-glucose 3 h): 3.47%
Percentage distribution of 13C-mass isotopomers of lactate in plasma ([6]; patient #10, [U-13C]-glucose 3 h): 6.37%

O[13CH2][13C@H]1O[13CH](O)[13C@H](O)[13C@@H](O)[13C@@H]1O (stereo partly drawn) [[U-^13C]-Glucose, uniformly ^13C labeled glucose, reference compound]
% 13C enrichment of metabolite in lung tissue [7]: 15.5%
apparent half-life in plasma ([3]; mouse, in vivo): 16 to 22 min
initial % 13C enrichment in plasma ([3]; mouse, in vivo): 65%
